pIC50: −log10 of the molar value. Active and inactive are the calls of the source. No cut-off for these calls is given here.
What was measured:
[1] = Inhibition of soybean 15-lipoxygenase assessed as residual activity by spectrophotometry; set-up: species or system Glycine max
[2] = system: MCF7; assay: Growth inhibition of human MCF7 cells; type: functional, cell-based
[3] = system: HGT; assay: Growth inhibition of HGT cells; type: functional, cell-based; details: Homo sapiens

- pIC50 [1]: 3.19
Structure (SMILES): C=C[C@]1(C)C=C2CC[C@@H]3[C@](C)(CCC[C@@]3(C)C(=O)O)[C@H]2CC1 [SANDARACOPIMARIC ACID]
- Activity [2]: inactive
- Activity [3]: inactive

— ChEMBL document CHEMBL1159221, “Crystal Structure of Sandaracopimaric Acid, a Lipoxygenase Inhibitor from Juniperus phoenicea” (J Nat Prod, 1995)
